# How the values were obtained:
# Experiment in all cases: relative viability (nuclei count vs DMSO), 5 days (fraction); higher = more cells survive
# [1] = compound: CN(c1ncccc1CNc1nc(Nc2ccc3c(c2)CC(=O)N3)ncc1C(F)(F)F)S(C)(=O)=O + CC(=O)Nc1cccc(-n2c(=O)n(C3CC3)c(=O)c3c(Nc4ccc(I)cc4F)n(C)c(=O)c(C)c32)c1 [Trametinib] (partner 0.02 µM)
# Outline: (§1)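 Lung cancer cell lines in 1536-well plates got either a single drug or a fixed anchor-drug dose together with five library-drug doses (not always all listed) in √10 steps, by pin tool, on the day after seeding. Nuclei were counted after 5 days, and relative viability is the treated-to-vehicle ratio of nuclei counts. Values are medians of duplicate plates.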
# [2] = compound: CN(c1ncccc1CNc1nc(Nc2ccc3c(c2)CC(=O)N3)ncc1C(F)(F)F)S(C)(=O)=O + COc1cccc2cc(-c3nc([C@H]4CC[C@H](C(=O)O)CC4)n4ncnc(N)c34)[nH]c12 [OSI-027] (partner 0.5 µM)
# Outline: as §1
# [3] = compound: CN(c1ncccc1CNc1nc(Nc2ccc3c(c2)CC(=O)N3)ncc1C(F)(F)F)S(C)(=O)=O + CS(=O)(=O)CCNCc1ccc(-c2ccc3ncnc(Nc4ccc(OCc5cccc(F)c5)c(Cl)c4)c3c2)o1 [Lapatinib] (partner 2 µM)
# Outline: as §1
# [4] = compound: CN(c1ncccc1CNc1nc(Nc2ccc3c(c2)CC(=O)N3)ncc1C(F)(F)F)S(C)(=O)=O + C[C@]1(O)C[C@@H](c2nc(-c3ccc4ccc(-c5ccccc5)nc4c3)c3c(N)nccn32)C1 [Linsitinib] (partner 1 µM)
# Outline: as §1
Cell Line,relative viability ([1]; first compound 0.01 µM),relative viability ([1]; first compound 0.03162 µM),relative viability ([1]; first compound 0.1 µM),relative viability ([1]; first compound 0.3162 µM),relative viability ([1]; first compound 1 µM),relative viability ([2]; first compound 0.01 µM),relative viability ([2]; first compound 0.03162 µM),relative viability ([2]; first compound 0.1 µM),relative viability ([2]; first compound 0.3162 µM),relative viability ([2]; first compound 1 µM),relative viability ([3]; first compound 0.01 µM),relative viability ([3]; first compound 0.03162 µM),relative viability ([3]; first compound 0.1 µM),relative viability ([3]; first compound 0.3162 µM),relative viability ([3]; first compound 1 µM),relative viability ([4]; first compound 0.01 µM),relative viability ([4]; first compound 0.03162 µM),relative viability ([4]; first compound 0.1 µM),relative viability ([4]; first compound 0.3162 µM),relative viability ([4]; first compound 1 µM)
201T,0.709,0.712,0.664,0.669,0.67,0.658,0.702,0.741,0.663,0.648,1.08,1,0.962,0.924,0.988,1.05,1.04,1.04,1.01,0.995
A549,,,,,,,,,,,1,1.06,0.971,0.928,0.915,0.526,0.761,0.558,0.606,0.694
A-427,0.722,0.791,0.67,0.821,0.741,0.472,0.553,0.504,0.44,0.475,1.05,1.05,1,1.04,1.02,1.12,1.12,1.1,1.14,1.06
ABC-1,,,,,,0.424,0.537,0.432,0.498,0.499,1.29,1.15,1.36,1.13,1.21,0.908,0.914,0.75,0.814,0.967
BEN,0.954,1.19,0.92,1.02,0.869,0.294,0.293,0.276,0.304,0.284,0.699,0.689,0.654,0.715,0.686,0.912,0.972,0.938,0.879,1.04
CAL-12T,0.363,0.304,0.32,0.358,0.357,0.725,0.874,0.58,0.719,0.514,0.65,0.663,0.43,0.591,0.627,0.886,0.861,0.705,0.616,0.639
COR-L23,0.563,0.66,0.57,0.605,0.516,0.782,0.722,0.681,0.756,0.642,0.924,1.16,0.92,0.883,0.628,0.853,0.983,0.818,1.07,0.735
COR-L 105,0.459,0.419,0.453,0.479,0.445,0.668,0.784,0.747,0.615,0.583,0.335,0.387,0.355,0.355,0.341,0.964,1,1.09,0.882,0.67
Calu-6,,,,,,,,,,,1.05,1.12,1,1,0.912,1.05,0.992,0.892,0.955,0.914
ChaGo-K-1,0.959,0.923,0.999,0.912,0.849,0.537,0.566,0.544,0.538,0.659,,,,,,,,,,
EBC-1,,,,,,,,,,,0.217,0.187,0.248,0.204,0.2,0.951,1.01,0.889,0.91,0.788
EKVX,0.355,0.374,0.244,0.319,0.262,0.757,0.711,0.618,0.685,0.614,0.182,0.188,0.218,0.119,0.514,0.94,1.13,0.85,0.931,0.882
EMC-BAC-2,0.872,0.887,0.855,0.841,0.722,0.377,0.364,0.339,0.418,0.371,0.956,0.902,0.876,0.899,0.838,0.797,0.838,0.792,0.79,0.804
EPLC-272H,0.288,0.294,0.247,0.319,0.277,0.276,0.294,0.305,0.344,0.279,0.921,0.914,0.884,0.965,1.09,1.21,1.12,1.22,1.33,1.12
H3255,0.688,0.675,0.549,0.601,0.576,0.606,0.611,0.488,0.568,0.598,0.24,0.221,0.237,0.192,0.252,0.924,0.949,0.988,0.912,0.922
HARA,0.816,0.63,0.439,0.63,0.723,0.54,0.481,0.524,0.612,0.55,0.763,0.692,0.616,0.678,0.665,0.945,1.06,1.03,0.978,0.856
HCC-15,0.344,0.378,0.35,0.35,0.336,0.748,0.699,0.675,0.626,0.527,0.876,0.905,0.72,0.775,0.723,0.898,0.894,0.802,0.86,0.688
HCC-44,1.02,1.05,0.959,1.09,1.12,0.575,0.491,0.496,,0.703,1.09,0.986,0.987,0.993,0.972,0.73,0.688,0.722,0.714,0.664

# — the supplement of paper PMC10307832
